Source: patent US12077503B2, “Substituted cyclic amides and their use as herbicides” (FMC CORPORATION, priority 2015, dated 2024)

Experiments:
Assay type in all cases: in vivo
corn (Zea mays) [1] = assay: Test G Pre-Emergence Protocol; conditions: Zea mays, pre-emergence, 312 h, evaluated after 13 days; for plant injury at 15.625 g/ha: 15.625 g ai/ha; for plant injury at 15.625 g/ha / plant injury at 250 g/ha: read-out: Corn damage rating (100=total damage to plant; 0=no damage to plant); for plant injury at 62.5 g/ha: 62.5 g ai/ha, 100=total damage to plant, 0=no damage to plant, read-out: plant damage rating, Corn; for plant injury at 250 g/ha: 250 g ai/ha
Method in brief: (§1)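 Seeds were sown in standard soil and kept one day in a glasshouse (24/16° C day/night, 14 h light, 65% humidity), then sprayed with compound in acetone/water (50:50) containing 0.5% Tween 20 at 15.625, 62.5 or 250 g/ha. Damage was scored after 13 days (0 = none, 100 = total).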

[2] = system: ivy-leaved morning glory (Ipomoea hederacea); assay: Test G Pre-Emergence Protocol; conditions: Ipomoea, pre-emergence, 312 h, evaluated after 13 days; for pest or weed control at 15.625 g/ha: 15.625 g ai/ha, read-out: Morning-glory, Ivy-leaved damage rating (100=total damage to plant; 0=no damage to plant); for pest or weed control at 62.5 g/ha: 62.5 g ai/ha, 100=total damage to plant, 0=no damage to plant, read-out: plant damage rating, Morningglory, Ivy-leaved; for pest or weed control at 250 g/ha: 250 g ai/ha, read-out: Morningglory, Ivy-leaved damage rating (100=total damage to plant; 0=no damage to plant)
Method in brief: as §1

[3] = system: barnyardgrass (Echinochloa crus-galli); assay: Test G Pre-Emergence Protocol; conditions: Echinochloa crus-galli, pre-emergence, 312 h, evaluated after 13 days; for pest or weed control at 15.625 g/ha: 15.625 g ai/ha, read-out: Barnyard grass damage rating (100=total damage to plant; 0=no damage to plant); for pest or weed control at 62.5 g/ha: 62.5 g ai/ha, 100=total damage to plant, 0=no damage to plant, read-out: plant damage rating, Barnyardgrass; for pest or weed control at 250 g/ha: 250 g ai/ha, read-out: Barnyardgrass damage rating (100=total damage to plant; 0=no damage to plant)
Method in brief: as §1

[4] = system: velvetleaf (Abutilon theophrasti); assay: Test G Pre-Emergence Protocol; conditions: Abutilon theophrasti, pre-emergence, 312 h, evaluated after 13 days; for pest or weed control at 15.625 g/ha: 15.625 g ai/ha; for pest or weed control at 15.625 g/ha / pest or weed control at 250 g/ha: read-out: Velvetleaf damage rating (100=total damage to plant; 0=no damage to plant); for pest or weed control at 62.5 g/ha: 62.5 g ai/ha, 100=total damage to plant, 0=no damage to plant, read-out: plant damage rating, Velvetleaf; for pest or weed control at 250 g/ha: 250 g ai/ha
Method in brief: as §1

[5] = system: redroot pigweed (Amaranthus retroflexus); assay: Test G Pre-Emergence Protocol; conditions: Amaranthus retroflexus, pre-emergence, 312 h, evaluated after 13 days; for pest or weed control at 15.625 g/ha: 15.625 g ai/ha; for pest or weed control at 15.625 g/ha / pest or weed control at 250 g/ha: read-out: Pigweed, Redroot damage rating (100=total damage to plant; 0=no damage to plant); for pest or weed control at 62.5 g/ha: 62.5 g ai/ha, 100=total damage to plant, 0=no damage to plant, read-out: plant damage rating, Pigweed, Redroot; for pest or weed control at 250 g/ha: 250 g ai/ha
Method in brief: as §1

[6] = system: giant foxtail (Setaria faberi); assay: Test G Pre-Emergence Protocol; conditions: Setaria faberi, pre-emergence, 312 h, evaluated after 13 days; for pest or weed control at 15.625 g/ha: 15.625 g ai/ha; for pest or weed control at 15.625 g/ha / pest or weed control at 250 g/ha: read-out: Foxtail, Giant damage rating (100=total damage to plant; 0=no damage to plant); for pest or weed control at 62.5 g/ha: 62.5 g ai/ha, 100=total damage to plant, 0=no damage to plant, read-out: plant damage rating, Foxtail, Giant; for pest or weed control at 250 g/ha: 250 g ai/ha
Method in brief: as §1

corn (Zea mays) [7] = assay: Test G Post-Emergence Protocol; conditions: Zea mays, post-emergence, 312 h; for plant injury at 15.625 g/ha: 15.625 g ai/ha, evaluated after 13 days (100=total damage to plant; 0=no damage to plant), read-out: Corn damage rating; for plant injury at 62.5 g/ha: 62.5 g ai/ha, read-out: Corn damage rating (100=total damage to plant; 0=no damage to plant); for plant injury at 62.5 g/ha / plant injury at 250 g/ha: evaluated after 13 days; for plant injury at 250 g/ha: 250 g ai/ha, read-out: damage to plant, Corn (100=total damage to plant; 0=no damage to plant)
Method in brief: (§2)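 Scores run 0 (no damage) to 100 (total damage) and were taken 13 days after spraying. Plants had been raised in pots for 8 days under glasshouse control (24/16 °C, 14 h photoperiod, 65% humidity) and then treated at 15.625, 62.5 or 250 g/ha.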

[8] = system: ivy-leaved morning glory (Ipomoea hederacea); assay: Test G Post-Emergence Protocol; conditions: Ipomoea, post-emergence, 312 h; for pest or weed control at 15.625 g/ha: 15.625 g ai/ha, evaluated after 13 days (100=total damage to plant; 0=no damage to plant), read-out: Morningglory, Ivy-leaved damage rating
Method in brief: as §2

[9] = system: barnyardgrass (Echinochloa crus-galli); assay: Test G Post-Emergence Protocol; conditions: Echinochloa crus-galli, post-emergence, 312 h; for pest or weed control at 15.625 g/ha: 15.625 g ai/ha, evaluated after 13 days (100=total damage to plant; 0=no damage to plant), read-out: Barnyardgrass damage rating; for pest or weed control at 62.5 g/ha: 62.5 g ai/ha, read-out: Barnyardgrass damage rating (100=total damage to plant; 0=no damage to plant); for pest or weed control at 62.5 g/ha / pest or weed control at 250 g/ha: evaluated after 13 days; for pest or weed control at 250 g/ha: 250 g ai/ha, read-out: damage to plant, Barnyardgrass (100=total damage to plant; 0=no damage to plant)
Method in brief: as §2

[10] = system: velvetleaf (Abutilon theophrasti); assay: Test G Post-Emergence Protocol; conditions: Abutilon theophrasti, post-emergence, 312 h; for pest or weed control at 15.625 g/ha: 15.625 g ai/ha, evaluated after 13 days (100=total damage to plant; 0=no damage to plant), read-out: Velvetleaf damage rating; for pest or weed control at 62.5 g/ha: 62.5 g ai/ha, read-out: Velvetleaf damage rating (100=total damage to plant; 0=no damage to plant); for pest or weed control at 62.5 g/ha / pest or weed control at 250 g/ha: evaluated after 13 days; for pest or weed control at 250 g/ha: 250 g ai/ha, read-out: damage to plant, Velvetleaf (100=total damage to plant; 0=no damage to plant)
Method in brief: as §2

[11] = system: redroot pigweed (Amaranthus retroflexus); assay: Test G Post-Emergence Protocol; conditions: Amaranthus retroflexus, post-emergence, 312 h; for pest or weed control at 15.625 g/ha: 15.625 g ai/ha, evaluated after 13 days (100=total damage to plant; 0=no damage to plant), read-out: Pigweed, Redroot damage rating; for pest or weed control at 62.5 g/ha: 62.5 g ai/ha, read-out: Pigweed, Redroot damage rating (100=total damage to plant; 0=no damage to plant); for pest or weed control at 62.5 g/ha / pest or weed control at 250 g/ha: evaluated after 13 days; for pest or weed control at 250 g/ha: 250 g ai/ha, read-out: damage to plant, Pigweed, Redroot (100=total damage to plant; 0=no damage to plant)
Method in brief: as §2

[12] = system: giant foxtail (Setaria faberi); assay: Test G Post-Emergence Protocol; conditions: Setaria faberi, post-emergence, 312 h; for pest or weed control at 15.625 g/ha: 15.625 g ai/ha, evaluated after 13 days (100=total damage to plant; 0=no damage to plant), read-out: Foxtail, Giant damage rating; for pest or weed control at 62.5 g/ha: 62.5 g ai/ha, read-out: Foxtail, Giant damage rating (100=total damage to plant; 0=no damage to plant); for pest or weed control at 62.5 g/ha / pest or weed control at 250 g/ha: evaluated after 13 days; for pest or weed control at 250 g/ha: 250 g ai/ha, read-out: damage to plant, Foxtail, Giant (100=total damage to plant; 0=no damage to plant)
Method in brief: as §2

SMILES	plant injury at 15.625 g/ha (corn (Zea mays) [1]) [%]	plant injury at 62.5 g/ha (corn (Zea mays) [1]) [%]	plant injury at 250 g/ha (corn (Zea mays) [1]) [%]	pest or weed control at 15.625 g/ha [2] [%]	pest or weed control at 62.5 g/ha [2] [%]	pest or weed control at 250 g/ha [2] [%]	pest or weed control at 15.625 g/ha [3] [%]	pest or weed control at 62.5 g/ha [3] [%]	pest or weed control at 250 g/ha [3] [%]	pest or weed control at 15.625 g/ha [4] [%]	pest or weed control at 62.5 g/ha [4] [%]	pest or weed control at 250 g/ha [4] [%]	pest or weed control at 15.625 g/ha [5] [%]	pest or weed control at 62.5 g/ha [5] [%]	pest or weed control at 250 g/ha [5] [%]	pest or weed control at 15.625 g/ha [6] [%]	pest or weed control at 62.5 g/ha [6] [%]	pest or weed control at 250 g/ha [6] [%]	plant injury at 15.625 g/ha (corn (Zea mays) [7]) [%]	plant injury at 62.5 g/ha (corn (Zea mays) [7]) [%]	also measured
Cc1n[nH]c(NC(=O)[C@@H]2C(=O)N(C)C[C@H]2c2ccc(C(F)(F)F)cc2)c1C#N (racemic) [Compound 1582]	0	0	0	0	0	0	0	0	0	0	0	0	0	0	0	0	0	0	0	0	plant injury at 250 g/ha (corn (Zea mays) [7]): 0%; pest or weed control at 15.625 g/ha [8]: 0%; pest or weed control at 15.625 g/ha [9]: 0%; pest or weed control at 62.5 g/ha [9]: 0%; pest or weed control at 250 g/ha [9]: 0%; pest or weed control at 15.625 g/ha [10]: 0%; pest or weed control at 62.5 g/ha [10]: 0%; pest or weed control at 250 g/ha [10]: 0%; pest or weed control at 15.625 g/ha [11]: 0%; pest or weed control at 62.5 g/ha [11]: 0%; pest or weed control at 250 g/ha [11]: 0%; pest or weed control at 15.625 g/ha [12]: 0%; pest or weed control at 62.5 g/ha [12]: 0%; pest or weed control at 250 g/ha [12]: 0%
CN1C[C@@H](c2ccc(C(F)(F)F)cc2)[C@H](C(=O)Nc2cncnc2)C1=O (racemic) [Compound 1583]	0	0	0	0	0	0	0	0	0	0	0	0	0	0	30	0	0	30	0	0	plant injury at 250 g/ha (corn (Zea mays) [7]): 0%; pest or weed control at 15.625 g/ha [8]: 0%; pest or weed control at 62.5 g/ha ([8]; 62.5 g ai/ha, evaluated after 13 days, read-out: Morningglory, Ivy-leaved damage rating (100=total damage to plant; 0=no damage to plant)): 10%; pest or weed control at 250 g/ha ([8]; 250 g ai/ha, evaluated after 13 days, read-out: damage to plant, Morningglory, Ivy-leaved (100=total damage to plant; 0=no damage to plant)): 30%; pest or weed control at 15.625 g/ha [9]: 0%; pest or weed control at 62.5 g/ha [9]: 0%; pest or weed control at 250 g/ha [9]: 20%; pest or weed control at 15.625 g/ha [10]: 0%; pest or weed control at 62.5 g/ha [10]: 0%; pest or weed control at 250 g/ha [10]: 20%; pest or weed control at 15.625 g/ha [11]: 0%; pest or weed control at 62.5 g/ha [11]: 0%; pest or weed control at 250 g/ha [11]: 20%; pest or weed control at 15.625 g/ha [12]: 0%; pest or weed control at 62.5 g/ha [12]: 20%; pest or weed control at 250 g/ha [12]: 10%
